Laboratory results from patent US11234971B2, “Methods of treating cancer comprising administration of a glucocorticoid receptor modulator and a cancer chemotherapy agent” (Corcept Therapeutics Incorporated, priority 2018, dated 2022).

How the values were obtained:
[1] = test system: OVCAR-5 human ovarian cancer cells; assay: OVCAR-5 cell growth (Cell Titer-Glo) with chemotherapy agents with or without dexamethasone and relacorilant; type: cell-based
Method: The initial cell density was chosen to be low enough to allow for several population doublings (typically 3 to 5) during the indicated incubation period. […] After 48 hours of incubation, serially diluted test agents in growth medium were added to each well. After 72 hours of culture, the plated cells and Cell Titer-Glo® (Promega G7571) reagents were brought to room temperature to equilibrate for 30 minutes. 200 μL of Cell Titer-Glo® reagent was then added to each well, the plate was shaken for two minutes, and then left to equilibrate for ten minutes. The Cell Titer-Glo® cell viability assay uses ATP levels to determine cell numbers. After this equilibration, luminescence was read on the Biotech Synergy II microplate reader. The percent control (% C) of cell growth for each test concentration was calculated relative to untreated wells. All tests were performed in quadruplicate. Individual assay plates were evaluated for appropriate signal and well-to-well variance in the control wells for quality control.

[2] = test system: advanced or metastatic solid tumors; assay: Tumor assessments per RECIST 1.1 in study NCT02762981; type: in vivo, human; conditions: of 21 patients with paired samples; relacorilant plus nab-paclitaxel
Method: In the following, reference is made to RECIST and RECIST 1.1, which refer to the Response Evaluation Criteria for Solid Tumors. These criteria, first promulgated in 2000, and updated in 2009 (as RECIST 1.1.), are generally accepted, and nearly universally used criteria for clinical trials of therapies for solid tumors. See, e.g., Schwartz et al., Eur J Cancer. July; 62: 132-137 (2016). The study described in this Example was performed and evaluated according to these criteria. Detection of the ovarian cancer marker CA-125 was also used, per Gynecologic Cancer Intergroup (GCIG) criteria, in evaluating the patient samples.
Patients Patients with solid tumors were enrolled in study NCT02762981, a phase 1/2 study of CORT125134 (aka relacorilant) in combination with nab-paclitaxel. The patients were all 18 years of age or older, with advanced or metastatic solid tumors who have disease progression; all patients gave informed consent to participate in this study.
Patients received one or more cycles of treatments as describe schematically in FIGS. 1 and 2. The treatment schedules of each 28-day cycle are shown in those figures. Patients in Segment I of the study received continuous dosing of relacorilant (“CORT125134”); that is, relacorilant was administered to the patients on a daily basis. […]

MIA PaCa-2 xenograft = MIA PaCa-2 xenograft tumor growth in immunodeficient mice; type: in vivo
Description: The present example, Example 3, provides results of administration of the glucocorticoid receptor modulator relacorilant to cancerous cells. […] The MIA PaCa-2 xenograft model uses MIA PaCa-2 cell-line cells (pancreatic tumor cells derived from a pancreatic adenocarcinoma from a patient) engrafted into immunodeficient mice. The ovarian OVCAR-5 cell line is derived from a human epithelial carcinoma of the ovary, and was established from ascitic fluid obtained (prior to cytotoxic treatment) from a patient with progressive ovarian adenocarcinoma.
FIG. 10A. Relacorilant sensitizes the MIA PaCa-2 xenograft to paclitaxel. Tumor volume of PaCa-2 xenograft tumors implanted in immunodeficient mice is shown as a function of time (days) after implantation in the presence of vehicle (filled circles), paclitaxel (7.5 mg/kg; filled squares), relacorilant alone (upwardly pointing triangles), and relacorilant+7.5 mg/kg paclitaxel (downwardly pointing triangles). 7.5 mg/kg paclitaxel was administered three times (at the days indicated by the dashed vertical lines, indicating days 8, 12, and 16 following tumor implantation into the mice).
FIG. 10B. Relacorilant with Paclitaxel Reduces MIA PaCa-2 xenograft Tumor Volume. Initial tumor volume of PaCa-2 xenograft tumors implanted in immunodeficient mice was less than 400 cubic millimeters (mm^3). […] Tumor size progression is thus indicated by lines descending from the top (100%) value. The tumor-bearing mice were treated with vehicle, relacorilant (30 mg/kg every day), paclitaxel (three doses of 7.5 mg/kg paclitaxel, one dose administered on each of the days indicated in FIG. 10A), and the combination relacorilant (30 mg/kg every day) with paclitaxel (7.5 mg/kg doses of paclitaxel each administered on days 8, 12, and 16 post implantation). […] Xenograft tumor growth was slowed by combined relacorilant+paclitaxel as compared to either paclitaxel alone or relacorilant alone. Relacorilant thus enhanced sensitivity to paclitaxel in the pancreatic MIA PaCa-2 xenograft model.

[3] = OVCAR-5, glucocorticoid 100 nM dexamethasone, relacorilant in the presence of the glucocorticoid

With Cn1cc(S(=O)(=O)N2CCC3=Cc4c(cnn4-c4ccc(F)cc4)C[C@]3(C(=O)c3cc(C(F)(F)F)ccn3)C2)cn1 [relacorilant, (R)-(1-(4-fluorophenyl)-6-((1-methyl-1H-pyrazol-4-yl)sulfonyl)-4,4a,5,6,7,8-hexahydro-1H-pyrazolo[3,4-g]isoquinolin-4a-yl)(4-(trifluoromethyl)pyridin-2-yl)methanone] the “cell numbers (luminosity) in the presence of bortezumib and palbociclib” value ([1]; OVCAR-5, bortezumib 500 μM, palbociclib 100 μM, 100 nM dexamethasone, 300 nM relacorilant) was “opposed”, the “maximal toxicity at high chemotherapy concentrations” value ([1]; OVCAR-5, dexamethasone, relacorilant + dexamethasone) was “reversed this” and the “half-maximal potency of / sensitivity to oxaliplatin” value [1, 3] was “restored sensitivity to oxaliplatin”. The “maximum effect of / sensitivity to gemcitabine” value [1, 3] was “restored sensitivity to gemcitabine”, the “maximum effect of / sensitivity to paclitaxel” value [1, 3] was “restored sensitivity to paclitaxel” and the “effects of dexamethasone on response to chemotherapeutic agents” value ([1]; OVCAR-5, several chemotherapeutic agents) was “reversed the effects of dexamethasone in all cases”. For the same compound, the potency of carboplatin ([1]; OVCAR-5 grown with 100 nM dexamethasone, carboplatin titrated against increasing amounts of relacorilant) was “dose-dependently increased”, the “patients who experienced benefit from therapy (SD, PR or CR)” value [2] was 11 patients and the “patients who experienced progressive disease” value [2] was 10 patients. For the same compound, the “time to progression (fraction of tumors whose volume remained below 400 mm^3)” value (MIA PaCa-2 xenograft; relacorilant (30 mg/kg every day) added to paclitaxel 7.5 mg/kg days 8, 12, 16, compared to paclitaxel alone, p<0.0001) was “delayed the time to progression”, the “tumor growth (tumor volume over time)” value (MIA PaCa-2 xenograft; relacorilant added to 7.5 mg/kg paclitaxel (days 8, 12, 16), compared to paclitaxel alone, p<0.0001) was “delayed tumor growth” and the “time to progression (fraction of tumors whose volume remained below 400 mm^3)” value (MIA PaCa-2 xenograft; single agent, relacorilant 30 mg/kg every day or paclitaxel 7.5 mg/kg on days 8, 12, 16) was “nearly superimposed on the vehicle line”.
